Data published in PMC8998611, “Identification of Novel GSK-3β Hits Using Competitive Biophysical Assays” (International Journal of Molecular Sciences, 2022).

What was measured:
[1] = molecular target: T1, GSK-3β (Homo sapiens, UniProt P49841); experiment: LANCE Ultra TR-FRET GSK-3β kinase inhibition assay (ULight-GS phosphorylation); type: biochemical; conditions: 1 µM ATP, 50 nM ULight-GS; for IC50: dose-response 30 nM to 200 μM
Method: To assess if the identified GSK-3β binders were also able to affect kinase activity, the inhibitory activity of the four identified hit compounds was tested at four concentrations (1-5-50-100 μM) using the LANCE® Ultra (Perkin Elmer, Waltham, MA, USA) time-resolved fluorescence resonance energy transfer (TR-FRET) assay. The assay measures the ability of GSK-3β to phosphorylate a specific substrate, human Muscle Glycogen Synthase (ULight-GS ([…]/pSer657)), in the presence and absence of the identified ligands. […] Specifically, IC50 values were (14.81 ± 0.55) μM and (15.25 ± 1.34) μ[…] and G12, respectively (Figure 5). The GSK-3β kinase assay was run in 384 well microplates (OptiPlate^TM-384, White, Perkin Elmer) with a total reaction volume of 20 μL. The inhibitory potency against human recombinant GSK-3β was evaluated using the LANCE® Ultra (Perkin Elmer) time-resolved fluorescence resonance energy transfer (TR-FRET) by measuring the phosphorylation of the specific substrate, human Muscle Glycogen Synthase (ULight-GS ([…]/pSer657)), according to the manufacturer's instructions. […] The reaction was initiated by adding 50 nM of the substrate ULight-[…] and 1 μM ATP. The mixture was incubated for 1 h at 23 °C. Afterward, the reaction was stopped by adding 8 mM EDTA. After 5 min, the anti-phospho-GS antibody labeled with europium chelate was added. 1 h later, the kinase reaction was monitored by irradiation at 320 nm, and the fluorescence was measured at 615 and 665 nm, using EnVision 2014 Multilabel Reader (PerkinElmer). The calculated signal ratio at 665/615 nm was proportional to the extent of ULight-GS phosphorylation. The compounds were screened at four concentrations (1-5-50-100 μM). For selected compounds, dose-response curves, ranging from 30 nM up to 200 μM, were performed. Dose-response curves were run in three independent experiments, each performed in three technical replicates. IC50 values (concentrations causing half-maximal response or enzyme inhibition) were determined by non-linear regression analysis of the Log [concentration]/response curves generated with mean replicate values using a four parameter Hill equation curve fitting with GraphPad Prism 8 (GraphPad Software Inc., San Diego, CA, USA).

[2] = molecular target: T1, GSK-3β; experiment: MicroScale Thermophoresis (MST) binding to fluorescently labeled GSK-3β; design: made in house; host or cells: Sf9 cells; conditions: preincubation with 3 mM AMP-PNP; data not shown
Method: MicroScale Thermophoresis (MST) experiments were conducted in triplicate on a Monolith NT.115 Pico system (NanoTemper Technologies, Munich, Germany).
The MST technique was used both for hit binding and for affinity (kd) determination.
GSK-3β was labeled with the His-tag RED-tris-NTA label 2nd generation (Nanotemper Technologies) following Nanotemper technology protocol. The 100 nM stock labeled protein solution was used at 20 nM concentration to roughly start from 7000 fluorescence counts in each screening experiment.
GSK-3β was labelled also using RED-NHS ammine dye (Nanotemper Technologies) following the manufacturer’s protocol. The obtained ammine-labeled protein was used at 20 nM concentration to roughly start the experiments from 6000 fluorescence counts.
Binding tests were performed on eight capillaries with a constant concentration of the labeled protein (20 nM), to detect the effect induced by the compounds on the fluorescence signal (in the presence or absence of 3 mM AMP-PNP). Protein in assay buffer in the presence of 5% DMSO was the negative control.
Assay buffer: Phosphate buffer 0.1 M pH 7.2, 5 mM MgCl2, 0.001% Tween80, 0.1% PEG8000. Experiments were performed in triplicates. Data elaboration and plots were performed using MO.Control Nanotemper software.

T1 sequence (P49841 whole entry): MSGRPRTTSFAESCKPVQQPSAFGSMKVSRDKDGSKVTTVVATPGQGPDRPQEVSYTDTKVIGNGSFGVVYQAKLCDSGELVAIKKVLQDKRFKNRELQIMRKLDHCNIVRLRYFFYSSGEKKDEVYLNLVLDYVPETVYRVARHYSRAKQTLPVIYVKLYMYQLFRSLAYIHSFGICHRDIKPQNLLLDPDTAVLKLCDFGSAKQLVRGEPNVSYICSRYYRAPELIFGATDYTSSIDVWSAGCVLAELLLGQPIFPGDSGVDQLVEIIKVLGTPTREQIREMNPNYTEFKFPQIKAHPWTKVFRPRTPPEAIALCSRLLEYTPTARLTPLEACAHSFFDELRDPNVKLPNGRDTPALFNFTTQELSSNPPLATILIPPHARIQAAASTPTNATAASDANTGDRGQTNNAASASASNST

IC50 [1] [µM] | inhibition at 1 µM ([1]; 1 μM compound, mean ± SD) [%] | inhibition at 5 µM ([1]; 5 μM compound, mean ± SD) [%] | inhibition at 50 µM ([1]; 50 μM compound, mean ± SD) [%] | inhibition at 100 µM ([1]; 100 μM compound, mean ± SD) [%] | MST binding check, displacement assay [2] | Structure (SMILES)
38.1 | – | – | – | – | – | O=C(Nc1ccccn1)C1CCN(C(=O)COc2ccccc2F)C1 (stereo not shown) [ARN1484]
27.2 | – | – | – | – | – | CN(C)S(=O)(=O)N1CC(c2nc(N)ncc2-c2ccc(F)cc2)C1 [ARN9133]
– | 2.5 ± 0.9 | 4.9 ± 1.5 | 27.1 ± 4.9 | 46.6 ± 6 | maintained their ability to bind GSK-3β | O=C(NCCn1ncc(-c2ccncc2)c1C1CC1)c1ccccc1F [B3]
